This note sets out measurements from US10894793B2, “Bicyclic pyridine, pyrazine, and pyrimidine derivatives as PI3K beta inhibitors” (Janssen Pharmaceutica NV, priority 2016, dated 2021).

In data set [1] the target is T1, PIK3Cβ_h (Homo sapiens, UniProt P42338).
T1 construct: purchased DiscoveRx Corporation
Kind of data set: Enzyme binding assay (KINOMEscan). To be noted: DiscoveRx. On the procedure: (§1) Enzyme Binding Assays (KINOMEscan®)
(§2) Kinase enzyme binding affinities of compounds disclosed herein were determined using the KINOMEscan technology performed by DiscoveRx Corporation, San Diego, Calif., USA (www.kinomescan.com). Table A reports the obtained Kd values (nM), with the Kd being the inhibitor binding constant: […]

Data set [2] concerns the target T2, MTOR_h (Homo sapiens, UniProt P42345).
T2 construct: purchased DiscoveRx Corporation
Kind of data set: Enzyme binding assay (KINOMEscan). To be noted: DiscoveRx. On the procedure:
as §1, §2

Data set [3] addresses T3, PIK3Cγ_h (Homo sapiens, UniProt P48736).
T3 construct: purchased DiscoveRx Corporation
Kind of data set: Enzyme binding assay (KINOMEscan). Particulars: DiscoveRx. On the procedure: as §1, §2

For data set [4], the target named is T4, PIK3Cδ_h (Homo sapiens, UniProt O00329).
T4 construct: purchased DiscoveRx Corporation
T4 sequence (O00329 1-1044): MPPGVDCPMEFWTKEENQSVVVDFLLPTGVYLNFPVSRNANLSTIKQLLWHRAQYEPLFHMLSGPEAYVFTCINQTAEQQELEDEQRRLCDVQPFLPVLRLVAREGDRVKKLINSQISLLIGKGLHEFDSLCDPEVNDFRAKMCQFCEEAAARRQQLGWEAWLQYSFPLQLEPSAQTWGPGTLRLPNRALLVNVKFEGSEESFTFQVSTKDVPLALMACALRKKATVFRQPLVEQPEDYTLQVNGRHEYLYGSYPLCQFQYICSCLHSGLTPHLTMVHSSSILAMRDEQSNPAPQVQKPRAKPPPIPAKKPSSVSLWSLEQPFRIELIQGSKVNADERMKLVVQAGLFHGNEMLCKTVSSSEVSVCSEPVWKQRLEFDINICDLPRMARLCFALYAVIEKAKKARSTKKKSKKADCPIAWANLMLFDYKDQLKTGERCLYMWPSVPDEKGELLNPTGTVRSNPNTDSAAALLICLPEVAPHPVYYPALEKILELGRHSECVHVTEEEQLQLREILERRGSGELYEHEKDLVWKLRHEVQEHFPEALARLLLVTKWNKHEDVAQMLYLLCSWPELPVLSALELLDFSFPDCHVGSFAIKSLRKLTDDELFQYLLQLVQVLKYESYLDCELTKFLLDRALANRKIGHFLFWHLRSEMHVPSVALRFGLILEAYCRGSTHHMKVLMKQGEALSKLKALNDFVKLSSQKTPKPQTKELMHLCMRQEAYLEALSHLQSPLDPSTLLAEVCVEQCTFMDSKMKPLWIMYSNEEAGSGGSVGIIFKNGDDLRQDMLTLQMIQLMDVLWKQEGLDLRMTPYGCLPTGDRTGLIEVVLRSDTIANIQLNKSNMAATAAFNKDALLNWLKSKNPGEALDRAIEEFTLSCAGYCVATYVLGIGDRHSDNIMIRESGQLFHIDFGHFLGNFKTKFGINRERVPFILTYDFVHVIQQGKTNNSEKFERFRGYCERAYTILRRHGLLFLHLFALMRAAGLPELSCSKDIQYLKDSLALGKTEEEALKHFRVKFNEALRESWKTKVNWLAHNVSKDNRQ
Kind of data set: Enzyme binding assay (KINOMEscan). Particulars: DiscoveRx. On the procedure: as §1, §2

The target of data set [5] is T5, PIK3Cα_h (Homo sapiens, UniProt P42336).
T5 construct: purchased DiscoveRx Corporation
The data set is described as follows: Enzyme binding assay (KINOMEscan). To be noted: DiscoveRx. On the procedure:
as §1, §2

For data set [6], the system named is Akt phosphorylated at Thr308 in PC-3 cells. Kind of data set: Cellular assay: phosphorylation of Akt (Thr308) in PC-3 cells, MSD ELISA. Type of data set: cell-based. To be noted: Homo sapiens, PC-3, 1 h, 60 min compound incubation, read-out: IC50 pAkt_Thr308. On the procedure:
(§3) Cellular activity of PI3Kβ inhibitors was determined by quantifying the phosphorylation of Akt in PC-3 cells. Akt phosphorylated at Ser473 and Thr308 were measured using an enzyme-linked immunosorbent assay (ELISA; Meso Scale Discovery (MSD), Gaithersburg, Md.) and specific primary antibodies from MSD.
(§4) On day 1, PC3 cells (ATCC #[…]) were seeded into PerkinElmer MW96 plates at 25.000 cells per well, in 75 μl complete culture medium (DMEM high glucose, AQmedia™, D0819, Sigma-Aldrich) containing 10% heat inactivated FCS and incubated at 37° C., […] during 24 hours. On day 2, compound or DMSO (0.3%) was added and cells were further incubated for 60 min at 37° C., 5% CO2 in a total volume of 100 μl of medium.
(§5) The phosphoprotein assay was executed according to vendor instructions in the Phospho-Akt (Ser473) Assay Whole Cell Lysate Kit (MSD #K15100D-3) and the Phospho-Akt (Thr308) Assay Whole Cell Lysate Kit (MSD #K151DYD-3) using the lysis, blocking and wash buffer provided.
(§6) Briefly, at the end of the cell treatment period, media were removed by aspiration and adherent cells were lysed in 50 μl ice-cold lysis buffer. MSD plates are supplied pre-coated with capture antibodies for Phospho-Akt (Ser473 and Thr308). After blocking, lysates from tissue culture plates were added and plates were washed. Then, a solution containing the detection antibody (anti-total Akt conjugated with an electrochemiluminescent compound-MSD Sulfo-tag label) was added. The signals were detected using an MSD SECTOR Imager 6000 and are proportional to the phospho-Akt titres.
(§7) Data were processed. The percentage of inhibition was plotted against the log concentration of test compounds, and the sigmoidal log concentration-effect curve of best fit was calculated by nonlinear regression analysis. From these concentration-response curves, the IC50 values were calculated. Five concentrations were used for curve fitting.

Data set [7] deals with Akt phosphorylated at Ser473 in PC-3 cells. Kind of data set: Cellular assay: phosphorylation of Akt (Ser473) in PC-3 cells, MSD ELISA. Type of data set: cell-based. To be noted: Homo sapiens, PC-3, 1 h, 60 min compound incubation, read-out: IC50 pAkt_S473. On the procedure:
as §3, §4, §5, §6, §7

T5 sequence (P42336 whole entry): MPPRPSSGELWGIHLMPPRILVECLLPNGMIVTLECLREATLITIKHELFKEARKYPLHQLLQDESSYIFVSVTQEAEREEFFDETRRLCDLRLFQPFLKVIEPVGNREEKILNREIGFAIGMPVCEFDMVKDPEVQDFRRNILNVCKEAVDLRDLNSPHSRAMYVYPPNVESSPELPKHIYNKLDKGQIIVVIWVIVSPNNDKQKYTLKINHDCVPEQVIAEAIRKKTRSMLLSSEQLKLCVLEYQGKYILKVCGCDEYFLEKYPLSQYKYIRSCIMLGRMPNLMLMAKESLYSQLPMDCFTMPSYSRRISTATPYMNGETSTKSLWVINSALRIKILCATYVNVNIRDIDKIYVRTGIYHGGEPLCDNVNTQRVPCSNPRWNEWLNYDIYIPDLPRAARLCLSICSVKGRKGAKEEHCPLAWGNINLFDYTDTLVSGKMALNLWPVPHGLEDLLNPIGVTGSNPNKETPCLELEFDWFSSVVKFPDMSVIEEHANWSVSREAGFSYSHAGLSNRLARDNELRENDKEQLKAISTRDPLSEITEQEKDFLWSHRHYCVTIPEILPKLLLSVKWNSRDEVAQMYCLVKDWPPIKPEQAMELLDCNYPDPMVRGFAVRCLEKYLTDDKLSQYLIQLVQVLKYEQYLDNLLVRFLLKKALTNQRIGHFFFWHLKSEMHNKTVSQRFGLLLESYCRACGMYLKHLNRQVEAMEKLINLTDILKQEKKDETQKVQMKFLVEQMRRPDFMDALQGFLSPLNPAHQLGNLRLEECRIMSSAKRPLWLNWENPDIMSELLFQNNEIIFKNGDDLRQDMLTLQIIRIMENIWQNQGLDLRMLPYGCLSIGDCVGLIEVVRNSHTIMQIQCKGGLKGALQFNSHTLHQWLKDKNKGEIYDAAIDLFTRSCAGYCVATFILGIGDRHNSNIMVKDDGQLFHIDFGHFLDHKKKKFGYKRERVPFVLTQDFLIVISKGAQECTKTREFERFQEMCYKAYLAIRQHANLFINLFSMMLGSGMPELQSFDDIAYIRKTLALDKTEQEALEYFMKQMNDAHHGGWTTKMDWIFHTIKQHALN
T1 sequence (P42338 whole entry): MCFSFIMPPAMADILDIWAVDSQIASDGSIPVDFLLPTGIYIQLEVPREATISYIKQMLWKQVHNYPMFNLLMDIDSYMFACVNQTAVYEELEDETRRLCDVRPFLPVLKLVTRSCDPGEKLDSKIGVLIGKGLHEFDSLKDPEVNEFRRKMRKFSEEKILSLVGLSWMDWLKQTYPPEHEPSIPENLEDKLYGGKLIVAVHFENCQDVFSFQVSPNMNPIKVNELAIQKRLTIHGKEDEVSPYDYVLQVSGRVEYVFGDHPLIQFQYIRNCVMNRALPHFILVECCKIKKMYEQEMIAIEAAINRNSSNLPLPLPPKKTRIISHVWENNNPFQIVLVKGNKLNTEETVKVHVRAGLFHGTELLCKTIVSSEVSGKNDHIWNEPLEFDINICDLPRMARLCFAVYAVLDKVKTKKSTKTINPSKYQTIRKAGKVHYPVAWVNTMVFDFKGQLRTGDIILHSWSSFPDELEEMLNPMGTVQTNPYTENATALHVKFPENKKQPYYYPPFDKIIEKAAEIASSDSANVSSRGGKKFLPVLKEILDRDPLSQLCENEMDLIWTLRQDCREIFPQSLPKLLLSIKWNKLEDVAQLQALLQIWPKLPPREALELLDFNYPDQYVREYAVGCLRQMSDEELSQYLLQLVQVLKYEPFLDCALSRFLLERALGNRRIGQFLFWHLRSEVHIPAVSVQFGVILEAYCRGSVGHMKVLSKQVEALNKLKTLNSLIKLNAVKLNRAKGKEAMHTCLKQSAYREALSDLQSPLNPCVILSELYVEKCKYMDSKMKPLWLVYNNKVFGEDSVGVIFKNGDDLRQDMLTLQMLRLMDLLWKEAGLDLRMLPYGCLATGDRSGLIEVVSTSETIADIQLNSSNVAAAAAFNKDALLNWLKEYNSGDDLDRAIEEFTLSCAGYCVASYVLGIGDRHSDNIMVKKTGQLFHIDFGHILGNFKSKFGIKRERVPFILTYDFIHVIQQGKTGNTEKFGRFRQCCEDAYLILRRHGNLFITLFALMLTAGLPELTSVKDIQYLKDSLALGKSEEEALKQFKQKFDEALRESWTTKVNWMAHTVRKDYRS
T3 sequence (P48736 whole entry): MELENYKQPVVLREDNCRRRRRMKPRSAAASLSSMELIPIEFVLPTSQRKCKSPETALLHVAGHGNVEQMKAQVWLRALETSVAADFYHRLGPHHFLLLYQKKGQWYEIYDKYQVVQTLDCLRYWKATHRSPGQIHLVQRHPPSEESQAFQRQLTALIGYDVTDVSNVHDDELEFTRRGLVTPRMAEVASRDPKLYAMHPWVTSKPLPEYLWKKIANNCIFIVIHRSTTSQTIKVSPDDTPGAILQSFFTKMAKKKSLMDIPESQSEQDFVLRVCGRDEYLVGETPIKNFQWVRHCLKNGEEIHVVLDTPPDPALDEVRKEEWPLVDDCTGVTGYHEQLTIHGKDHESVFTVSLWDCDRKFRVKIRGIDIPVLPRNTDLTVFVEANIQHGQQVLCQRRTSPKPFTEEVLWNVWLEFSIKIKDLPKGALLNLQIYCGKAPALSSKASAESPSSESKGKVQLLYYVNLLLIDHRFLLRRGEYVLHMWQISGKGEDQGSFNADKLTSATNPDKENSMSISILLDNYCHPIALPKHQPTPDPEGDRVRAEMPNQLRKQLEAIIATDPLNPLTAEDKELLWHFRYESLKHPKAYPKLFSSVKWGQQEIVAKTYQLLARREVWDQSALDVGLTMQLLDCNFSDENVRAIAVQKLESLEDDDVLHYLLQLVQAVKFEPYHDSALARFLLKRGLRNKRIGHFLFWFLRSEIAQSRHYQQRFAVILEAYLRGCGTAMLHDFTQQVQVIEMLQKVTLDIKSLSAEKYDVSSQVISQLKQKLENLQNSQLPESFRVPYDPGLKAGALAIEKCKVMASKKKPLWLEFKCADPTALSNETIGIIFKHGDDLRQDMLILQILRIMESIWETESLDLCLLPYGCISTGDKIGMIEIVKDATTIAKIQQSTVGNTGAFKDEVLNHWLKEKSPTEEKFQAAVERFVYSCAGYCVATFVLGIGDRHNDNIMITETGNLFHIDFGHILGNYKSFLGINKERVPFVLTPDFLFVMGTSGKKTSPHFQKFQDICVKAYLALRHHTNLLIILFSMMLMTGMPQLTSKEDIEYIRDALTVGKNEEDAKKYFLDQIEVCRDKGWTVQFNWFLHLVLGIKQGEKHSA

Molecule `Cc1c(Cc2c(CN3CCC(CO)CC3)nc3cnc(N4CCOCC4)cn23)cccc1C(F)(F)F` [Compound 10] yielded a melting point of 198 °C. This molecule returned a Kd in data set [1] of 41 nM. The Kd in data set [2] was more than 30200 nM. In data set [3], the Kd was more than 30200 nM. This molecule also gave a Kd in data set [4] of 4270 nM. In data set [5], this molecule came in with a Kd of more than 30200 nM. In addition, the half-inhibitory concentration (IC50) in data set [6] is more than 513 nM. Also, in data set [7], the IC50 was more than 513 nM.

The molecule `Cc1c(Cc2c(CCO)nc3cnc(N4CCOCC4)cn23)cccc1C(F)(F)F` [Compound 13] yielded a melting point of 142 °C. The Kd in data set [1] was 126 nM. Also, the Kd in data set [2] is more than 30200 nM. Also, the Kd in data set [3] is more than 30200 nM. Further, in data set [4], the Kd is 14100 nM. The same molecule gave a Kd in data set [5] of 20400 nM. The IC50 in data set [6] was more than 513 nM. Besides, the IC50 in data set [7] was more than 513 nM.

Regarding `Cc1c(Cc2c(CN3C[C@@H](C)N[C@@H](C)C3)nc3ncc(N4CCOCC4)cn23)cccc1C(F)(F)F` [Compound 19], the melting point was determined as 263 °C. In addition, the Kd in data set [1] came to 4.2 nM. Also, in data set [2], the Kd is more than 30200 nM. The molecule further displayed a Kd in data set [3] of more than 30200 nM. The molecule further showed a Kd in data set [4] of 1230 nM. This molecule had a Kd in data set [5] of 16600 nM. Also, the IC50 in data set [6] worked out at 186 nM. Besides, the IC50 in data set [7] came out at 380 nM.

As to `Cc1c(Cc2c(CN3CC4(C3)CS(=O)(=O)C4)nc3ncc(N4CCOCC4)cn23)cccc1C(F)(F)F` [Compound 21], the melting point turned out to be 228 °C. The same molecule had a Kd in data set [1] of 0.4 nM. The molecule also had a Kd in data set [2] of more than 30200 nM. In data set [3], this molecule yielded a Kd of more than 30200 nM. Also, binding in data set [4] was characterised by a dissociation constant (Kd) of 123 nM. The affinity in data set [5], expressed as Kd, was 1480 nM. Moreover, the IC50 in data set [6] was determined as 17 nM. Further, in data set [7], the IC50 came to 15 nM.

`Cc1c(Cc2c(CN3CCS(=O)(=O)CC3)nc3ncc(N4CCOCC4)cn23)cccc1C(F)(F)F` [Compound 22] gave a melting point of 225 °C. Further, the Kd in data set [1] is 3.1 nM. The molecule also returned a Kd in data set [2] of more than 30200 nM. In addition, in data set [3], the Kd was more than 30200 nM. In data set [4], this molecule returned a Kd of 631 nM. The molecule also gave a Kd in data set [5] of 1440 nM. The IC50 in data set [6] was approximately 79 nM. Besides, the IC50 in data set [7] came to 214 nM.

`Cc1c(Cc2c(C(=O)N3C[C@@H](C)N[C@@H](C)C3)nc3ncc(N4CCOCC4)cn23)cccc1C(F)(F)F` [Compound 23]: the melting point was 130 °C. This molecule also returned a Kd in data set [1] of 8.7 nM. This molecule returned a Kd in data set [2] of more than 30200 nM. Also, the Kd in data set [3] is more than 30200 nM. In addition, the Kd in data set [4] is 1480 nM. The same molecule came in with a Kd in data set [5] of more than 30200 nM. The 50% inhibitory concentration (IC50) in data set [6] was approximately 219 nM. The IC50 in data set [7] came out at 389 nM.

`Cc1c(Cc2c(CO)nc3c(N)cc(C4=CCOCC4)cn23)cccc1C(F)(F)F` [Compound 46] came in with a melting point of 223 °C. This molecule also yielded a Kd in data set [1] of 16 nM. In data set [2], this molecule registered a Kd of 5890 nM. In data set [3], this molecule displayed a Kd of 6460 nM. In data set [4], this molecule came in with a Kd of 1060 nM. The same molecule had a Kd in data set [5] of 8430 nM. The IC50 in data set [6] worked out at 18 nM. Also, in data set [7], the IC50 was 32 nM.

`CN1CCC(c2c(F)cccc2Cc2c(CO)nc3ncc(N4CCOCC4)cn23)CC1` [Compound 48]: the melting point came out at 222 °C. In data set [1], this molecule yielded a Kd of 49 nM. In data set [2], this molecule returned a Kd of more than 30200 nM. The Kd in data set [3] worked out at 12900 nM. Moreover, the Kd in data set [4] stood at 4790 nM. Further, the Kd in data set [5] was 9550 nM. For the same molecule, the IC50 in data set [6] was more than 513 nM. Further, the IC50 in data set [7] was more than 513 nM.

As for `OCc1nc2ncc(N3CCOCC3)cn2c1Cc1cccc(F)c1C1CCNCC1` [Compound 49], the melting point was 224 °C. Moreover, the Kd in data set [1] amounted to 15 nM. In data set [2], the Kd is more than 30200 nM. Moreover, binding in data set [3] was put at a Kd of 15800 nM. The same molecule came in with a dissociation constant Kd in data set [4] of 2240 nM. The molecule further gave an equilibrium dissociation constant (Kd) in data set [5] of 2570 nM. Also, the IC50 in data set [6] is more than 513 nM. Also, the IC50 in data set [7] was more than 513 nM.
